Tested on: 282377-053-R-J1-PDC complex spheroid viability
Experiment: Anticancer human tumor 282377-053-R-J1-PDC patient-derived colon adenocarcinoma cell line growth inhibition [RAS]
Conditions: for IC50: curve of first compound; for viability, T/C: stronger effect = lower value
Excerpt: RAS pathway inhibitors in Combinations in Complex Spheroids
A high-throughput screen of multi-cell type tumor spheroids was designed to identify active combinations of RAS pathway inhibitors and targeted small molecules. Complex spheroids include a stromal component modeled by human endothelial cells (HUVEC) and fibroblasts modeled by human mesenchymal stem cells (MSCs). The concentration ranges selected for each drug and investigational agent were based upon clinically achievable concentrations if the clinical Cmax of the agent was known.
Compounds. The drugs and investigational agents: abemaciclib (NSC768073), cobimetinib (NSC768068), divarasib (GDC6063, NSC841802), docetaxel (NSC628503), GDC-1971 (RLY-1971, NSC841576), gemcitabine (NSC613327), inavolisib (NSC800729), ipatasertib (NSC767898), KB-0742 (NSC834161), MRTX-1133 (NSC836407), osimertinib (NSC779217), RMC-4630 (NSC839698), RMC-6236 (NSC851965), RMC-6291 (NSC852671), Ro-3306 (NSC812927), sapanisertib (NSC764658), SN-38 (NSC673596), staurosporine (NSC755774), SY5609 (NSC837396), and tovorafenib (DAY101, NSC766906), were obtained from the National Cancer Institute (NCI) Developmental Therapeutics Program Chemical Repository. The FDA-approved anticancer drug set is available from the NCI Developmental Therapeutics Program. […] The stock solutions were prepared in dimethyl sulfoxide (DMSO, Sigma-Aldrich, St. Louis, MO, cat. D2650) at 800-fold the tested concentration and stored at -70 degrees C prior to their use. All drugs and investigational agents were tested over a range starting from a high concentration at or near the clinical Cmax and decreasing in half-log increments. If the clinical Cmax for an agent had not been determined, the highest concentration tested was 10 microM.
Cell Culture. All cells were maintained in an incubator at 37 degrees C and 5% CO2 with 95% humidity. The PDC lines were cultured according to standard operating procedures established by the NCI PDMR. All PDCs were thawed and cultured in Matrigel-coated flasks prepared with a working solution of 1X Ham's F-12 nutrient mix, without supplementation (Invitrogen, Waltham, MA, cat. 11765054), 100 U/mL penicillin-streptomycin (Invitrogen, cat. 15140122), and 2.5% Matrigel (Corning Inc., Corning, NY, cat. 354248) for the first three passages. The 362531-283-R-J2-PDC and 782815-120-R-J1-PDC lines were cultured in 6C/Colon 1B media, which includes advanced DMEM/F-12 (Thermo Fisher Scientific, cat. 12634028), 10 mM HEPES (Thermo Fisher Scientific, cat. 15630080), 1X GlutaMAX supplement (Thermo Fisher Scientific, cat. 35050061), 0.1 mg/mL primocin (InvivoGen, San Diego, CA, cat. ant-pm-2), 10% defined fetal bovine serum, heat inactivated (HyClone Laboratories Inc., Logan, UT, cat. SH30070.03HI), 50% L-WRN conditioned media (ATCC, cat. CRL-3276), 1.25 mM N-Acetyl-L-cysteine (Sigma-Aldrich, cat. A9165), 10 mM nicotinamide (Sigma-Aldrich, cat. N0636), 1X B-27 supplement (Thermo Fisher Scientific, cat. 17504044), 1X N-2 supplement (Thermo Fisher Scientific, cat. 17502048), 50 ng/mL human EGF (Thermo Fisher Scientific, cat. PHG0311), and 10 microM Y-27632 dihydrochloride (Tocris Bioscience, cat. 1254). The K12877-001-R-J1-PDC line was cultured in 6I media, which includes all 6C/Colon 1B media plus 10 ng/mL human FGF-10 (PeproTech, cat. 100-26), 1 ng/mL human FGF-2 (PeproTech, cat. 100-18B), 1 µM prostaglandin E2 (Tocris Bioscience, cat. 2296), […] hydrocortisone (Sigma-Aldrich, cat. H4001), and […] bovine insulin (Sigma-Aldrich, cat. I6634). The K86415-001-R-J1-PDC line was cultured in 6D media, which includes all 6C/Colon 1B media components minus the L-WRN conditioned media. The 485176-168-R4-J1-PDC was cultured in PANC media, which includes all 6C/Colon 1B media plus 100 ng/mL human FGF-10 (PeproTech, cat. 100-26), 500 nM SB-431542 (Selleckchem, cat. S1067), and 10 nM gastrin (Tocris Bioscience, cat. 3006). […]

[1] = second compound 0.0316 µM, first compound 0.0316 µM
[2] = second compound 0.0316 µM, first compound 0.1 µM
[3] = second compound 0.0316 µM, first compound 0.316 µM
[4] = second compound 0.0316 µM, first compound 1 µM
[5] = second compound 0.0316 µM, first compound 3.16 µM
[6] = second compound 0.0316 µM, first compound 10 µM
[7] = second compound 0.1 µM, first compound 0.0316 µM
[8] = second compound 0.1 µM, first compound 0.1 µM
[9] = second compound 0.1 µM, first compound 0.316 µM
[10] = second compound 0.1 µM, first compound 1 µM
[11] = second compound 0.1 µM, first compound 3.16 µM
[12] = second compound 0.1 µM, first compound 10 µM
[13] = second compound 0.316 µM, first compound 0.0316 µM
[14] = second compound 0.316 µM, first compound 0.1 µM
[15] = second compound 0.316 µM, first compound 0.316 µM
[16] = second compound 0.316 µM, first compound 1 µM
[17] = second compound 0.316 µM, first compound 3.16 µM
[18] = second compound 0.316 µM, first compound 10 µM
[19] = second compound 1 µM, first compound 0.0316 µM
[20] = second compound 1 µM, first compound 0.1 µM
[21] = second compound 1 µM, first compound 0.316 µM
[22] = second compound 1 µM, first compound 1 µM
[23] = second compound 1 µM, first compound 3.16 µM
[24] = second compound 1 µM, first compound 10 µM
[25] = second compound 3.16 µM, first compound 0.0316 µM
[26] = second compound 3.16 µM, first compound 0.1 µM
[27] = second compound 3.16 µM, first compound 0.316 µM
[28] = second compound 3.16 µM, first compound 1 µM
[29] = second compound 3.16 µM, first compound 3.16 µM
[30] = second compound 3.16 µM, first compound 10 µM
[31] = second compound 10 µM, first compound 0.0316 µM
[32] = second compound 10 µM, first compound 0.1 µM
[33] = second compound 10 µM, first compound 0.316 µM
[34] = second compound 10 µM, first compound 1 µM
[35] = second compound 10 µM, first compound 3.16 µM
[36] = second compound 10 µM, first compound 10 µM
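Further: spheroids exposed to agents for seven days before readout.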
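Wherever viability, T/C is given: luminescence viability as percent of DMSO vehicle control wells.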

Cc1nc(N2CCC3(CC2)COC(C)C3N)c(CO)nc1Sc1ccnc(N)c1Cl (stereo unspecified) + C#Cc1c(F)ccc2cc(O)cc(-c3ncc4c(N5CC6CCC(C5)N6)nc(OCC56CCCN5CC(F)C6)nc4c3F)c12
IC50 (second compound 0.0316 µM): > 10 µM | IC50 (second compound 0.1 µM): > 10 µM | IC50 (second compound 0.316 µM): > 10 µM | IC50 (second compound 1 µM): > 10 µM | IC50 (second compound 3.16 µM): > 10 µM | IC50 (second compound 10 µM): > 10 µM | viability, T/C [1]: 101% | viability, T/C [2]: 120% | viability, T/C [3]: 114% | viability, T/C [4]: 113% | viability, T/C [5]: 95.9% | viability, T/C [6]: 87.3% | viability, T/C [7]: 109% | viability, T/C [8]: 107% | viability, T/C [9]: 88.7% | viability, T/C [10]: 89.8% | viability, T/C [11]: 99.5% | viability, T/C [12]: 89.4% | viability, T/C [13]: 107% | viability, T/C [14]: 114% | viability, T/C [15]: 95% | viability, T/C [16]: 100% | viability, T/C [17]: 114% | viability, T/C [18]: 101% | viability, T/C [19]: 116% | viability, T/C [20]: 110% | viability, T/C [21]: 110% | viability, T/C [22]: 86% | viability, T/C [23]: 98% | viability, T/C [24]: 85% | viability, T/C [25]: 99.3% | viability, T/C [26]: 103% | viability, T/C [27]: 89.8% | viability, T/C [28]: 111% | viability, T/C [29]: 98.2% | viability, T/C [30]: 120% | viability, T/C [31]: 110% | viability, T/C [32]: 116% | viability, T/C [33]: 114% | viability, T/C [34]: 98.5% | viability, T/C [35]: 85.8% | viability, T/C [36]: 131%

NC1c2ccccc2OC12CCN(c1cnc3c(N4CCCc5ncccc54)n[nH]c3n1)CC2 (stereo unspecified) + C#Cc1c(F)ccc2cc(O)cc(-c3ncc4c(N5CC6CCC(C5)N6)nc(OCC56CCCN5CC(F)C6)nc4c3F)c12
IC50 (second compound 0.0316 µM): > 10 µM | IC50 (second compound 0.1 µM): > 10 µM | IC50 (second compound 0.316 µM): > 10 µM | IC50 (second compound 1 µM): > 10 µM | IC50 (second compound 3.16 µM): > 10 µM | IC50 (second compound 10 µM): > 10 µM | viability, T/C [1]: 92.2% | viability, T/C [2]: 91.7% | viability, T/C [3]: 111% | viability, T/C [4]: 104% | viability, T/C [5]: 88.3% | viability, T/C [6]: 67.5% | viability, T/C [7]: 90.7% | viability, T/C [8]: 85.5% | viability, T/C [9]: 99.2% | viability, T/C [10]: 71.9% | viability, T/C [11]: 110% | viability, T/C [12]: 73% | viability, T/C [13]: 105% | viability, T/C [14]: 87.4% | viability, T/C [15]: 78.4% | viability, T/C [16]: 95.6% | viability, T/C [17]: 94.8% | viability, T/C [18]: 78.7% | viability, T/C [19]: 83% | viability, T/C [20]: 88.1% | viability, T/C [21]: 106% | viability, T/C [22]: 92.5% | viability, T/C [23]: 85.1% | viability, T/C [24]: 83% | viability, T/C [25]: 90.4% | viability, T/C [26]: 96% | viability, T/C [27]: 99.6% | viability, T/C [28]: 86.5% | viability, T/C [29]: 90.4% | viability, T/C [30]: 77.1% | viability, T/C [31]: 115% | viability, T/C [32]: 105% | viability, T/C [33]: 108% | viability, T/C [34]: 84.7% | viability, T/C [35]: 109% | viability, T/C [36]: 81.6%

Nc1ccn(C2OC(CO)C(O)C2(F)F)c(=O)n1 (stereo unspecified) + C#Cc1c(F)ccc2cc(O)cc(-c3ncc4c(N5CC6CCC(C5)N6)nc(OCC56CCCN5CC(F)C6)nc4c3F)c12
IC50 (second compound 0.0316 µM): 0.633 µM | IC50 (second compound 0.1 µM): 0.251 µM | IC50 (second compound 0.316 µM): 0.44 µM | IC50 (second compound 1 µM): 0.258 µM | IC50 (second compound 3.16 µM): 0.544 µM | IC50 (second compound 10 µM): > 1 µM | viability, T/C (second compound 0.0316 µM, first compound 0.00316 µM): 133% | viability, T/C (second compound 0.0316 µM, first compound 0.01 µM): 117% | viability, T/C [1]: 85.4% | viability, T/C [2]: 79.5% | viability, T/C [3]: 59% | viability, T/C [4]: 43.1% | viability, T/C (second compound 0.1 µM, first compound 0.00316 µM): 96% | viability, T/C (second compound 0.1 µM, first compound 0.01 µM): 89.7% | viability, T/C [7]: 101% | viability, T/C [8]: 76.8% | viability, T/C [9]: 44.6% | viability, T/C [10]: 37.9% | viability, T/C (second compound 0.316 µM, first compound 0.00316 µM): 115% | viability, T/C (second compound 0.316 µM, first compound 0.01 µM): 92.5% | viability, T/C [13]: 99.4% | viability, T/C [14]: 77% | viability, T/C [15]: 51.1% | viability, T/C [16]: 42.3% | viability, T/C (second compound 1 µM, first compound 0.00316 µM): 100% | viability, T/C (second compound 1 µM, first compound 0.01 µM): 101% | viability, T/C [19]: 107% | viability, T/C [20]: 69.6% | viability, T/C [21]: 51.3% | viability, T/C [22]: 40.2% | viability, T/C (second compound 3.16 µM, first compound 0.00316 µM): 89.8% | viability, T/C (second compound 3.16 µM, first compound 0.01 µM): 86% | viability, T/C [25]: 89.1% | viability, T/C [26]: 73.1% | viability, T/C [27]: 56.6% | viability, T/C [28]: 43.3% | viability, T/C (second compound 10 µM, first compound 0.00316 µM): 99.2% | viability, T/C (second compound 10 µM, first compound 0.01 µM): 99.3% | viability, T/C [31]: 92.8% | viability, T/C [32]: 69.8% | viability, T/C [33]: 62.5% | viability, T/C [34]: 54.5%

— PubChem BioAssay AID2060905 (Molecular Pharmacology Branch, DTP, NCI, 2025)
